From patent publication US20240148822A1, “ASSOCIATIONS OF FOSFOMYCIN AND COLISTIN FOR USE AGAINST BIOFILM-ASSOCIATED BACTERIAL INFECTIONS” (priority 2021, published 2024)
Converted amounts (≈) assume the structure as drawn.

Experiments:
Type in all cases: cell-based
[1] = tested on: all tested strains (preformed biofilms); assay: MBEC, summary over all tested strains; details: colistin
Experimental: (§1) Fosfomycin and colistin Minimum Biofilm Eradication Concentrations (MBECs) were determined as previously described (Macia et al, mentioned above), with MBEC being defined as the lowest concentration of antibiotic that prevented visible bacterial growth in the recovery medium.

[2] = tested on: all tested strains (Gram-negative clinical isolates); assay: Colistin MIC, broth microdilution, summary over all tested strains
Experimental: (§2) Antimicrobial susceptibility testing was performed according to Clinical and Laboratory Standard Institute guidelines [CLSI_M07 2018, CLSI_M100 2020]. In particular, colistin MICs were determined by the broth microdilution method, and fosfomycin MICs by the agar dilution method (with the addition of 25 μg/ml of glucose-6-phosphate, as recommended). […] and P. aeruginosa ATCC 27853 were used for quality control purposes.

[3] = tested on: A. baumannii preformed biofilms; assay: Biofilm susceptibility testing (Nunc-TSP lid system), MBEC; details: 24 h exposure
Experimental: as §1

[4] = tested on: S. maltophilia preformed biofilms; assay: as above; details: 24 h exposure
Experimental: as §1

[5] = tested on: K. pneumoniae preformed biofilms; assay: as above; details: 24 h exposure
Experimental: as §1

[6] = tested on: P. aeruginosa preformed biofilms; assay: as above; details: 24 h exposure
Experimental: as §1

K. pneumoniae [7] = assay: Colistin MIC, broth microdilution method (CLSI)
Experimental: as §2

A. baumannii [8] = assay: Colistin MIC, broth microdilution method (CLSI)
Experimental: as §2

P. aeruginosa [9] = assay: Colistin MIC, broth microdilution method (CLSI)
Experimental: as §2

S. maltophilia [10] = assay: Colistin MIC, broth microdilution method (CLSI)
Experimental: as §2

K. pneumoniae [11] = assay: Fosfomycin MIC, agar dilution method (CLSI); details: Klebsiella pneumoniae
Experimental: as §2

A. baumannii [12] = assay: Fosfomycin MIC, agar dilution method (CLSI); details: Acinetobacter baumannii
Experimental: as §2

P. aeruginosa [13] = assay: Fosfomycin MIC, agar dilution method (CLSI); details: Pseudomonas aeruginosa
Experimental: as §2

S. maltophilia [14] = assay: Fosfomycin MIC, agar dilution method (CLSI); details: Stenotrophomonas maltophilia
Experimental: as §2

[15] = tested on: all tested strains (Gram-negative clinical isolates); assay: Fosfomycin MIC, agar dilution, summary over all tested strains
Experimental: as §2

[16] = strain FZ103, preformed biofilm
[17] = strain FZ105, preformed biofilm
[18] = strain FZ106, preformed biofilm
[19] = strain FZ108, preformed biofilm
[20] = strain FZ141, preformed biofilm
[21] = strain FZ139, preformed biofilm

## colistin
[1]
  MBEC50: 512 µg/mL
[2]
  MIC50: 4 μs/ml
  MIC90: 32 μs/ml
[3]; strain FZ1, preformed biofilm
  Colistin MBEC: 64 µg/mL
[3]; strain FZ2, preformed biofilm
  Colistin MBEC: >1024 µg/mL
[3]; strain FZ83, preformed biofilm
  Colistin MBEC: 128 µg/mL
[4]; strain FZ6, preformed biofilm
  Colistin MBEC: >1024 µg/mL
[4]; strain FZ8, preformed biofilm
  Colistin MBEC: >1024 µg/mL
[4]; strain FZ85, preformed biofilm
  Colistin MBEC: >1024 µg/mL
[5]; strain FZ80, preformed biofilm
  Colistin MBEC: 64 µg/mL
[5]; [16]
  Colistin MBEC: 64 µg/mL
[5]; [17]
  Colistin MBEC: 256 µg/mL
[5]; [18]
  Colistin MBEC: 256 µg/mL
[5]; [19]
  Colistin MBEC: >1024 µg/mL
[5]; [20]
  Colistin MBEC: 8 µg/mL
[6]; strain FZ18, preformed biofilm
  Colistin MBEC: >1024 µg/mL
[6]; strain FZ34, preformed biofilm
  Colistin MBEC: >1024 µg/mL
[6]; strain FZ45, preformed biofilm
  Colistin MBEC: >1024 µg/mL
[6]; strain FZ98, preformed biofilm
  Colistin MBEC: >1024 µg/mL
[6]; [21]
  Colistin MBEC: >1024 µg/mL
K. pneumoniae [7]; strain FZ80
  Colistin MIC: 0.5 µg/mL
K. pneumoniae [7]; strain FZ103
  Colistin MIC: 8 µg/mL
K. pneumoniae [7]; strain FZ105
  Colistin MIC: 128 µg/mL
K. pneumoniae [7]; strain FZ106
  Colistin MIC: 32 µg/mL
K. pneumoniae [7]; strain FZ108
  Colistin MIC: 32 µg/mL
K. pneumoniae [7]; strain FZ141
  Colistin MIC: 2 µg/mL
A. baumannii [8]; strain FZ1
  Colistin MIC: 0.5 µg/mL
A. baumannii [8]; strain FZ2
  Colistin MIC: 1 µg/mL
A. baumannii [8]; strain FZ83
  Colistin MIC: 8 µg/mL
P. aeruginosa [9]; strain FZ18
  Colistin MIC: 4 µg/mL
P. aeruginosa [9]; strain FZ34
  Colistin MIC: 4 µg/mL
P. aeruginosa [9]; strain FZ45
  Colistin MIC: 4 µg/mL
P. aeruginosa [9]; strain FZ98
  Colistin MIC: 512 µg/mL
P. aeruginosa [9]; strain FZ139
  Colistin MIC: 4 µg/mL
S. maltophilia [10]; strain FZ6
  Colistin MIC: 4 µg/mL
S. maltophilia [10]; strain FZ8
  Colistin MIC: 4 µg/mL
S. maltophilia [10]; strain FZ85
  Colistin MIC: 16 µg/mL

## C[C@@H]1O[C@@H]1P(=O)(O)O [Fosfomycin, fosfomycin]
K. pneumoniae [11]; strain FZ80
  MIC: 128 µg/mL (≈ 927 µM)
K. pneumoniae [11]; strain FZ103
  MIC: 32 µg/mL (≈ 232 µM)
K. pneumoniae [11]; strain FZ105
  MIC: 16 µg/mL (≈ 116 µM)
K. pneumoniae [11]; strain FZ106
  MIC: 64 µg/mL (≈ 464 µM)
K. pneumoniae [11]; strain FZ108
  MIC: 128 µg/mL (≈ 927 µM)
K. pneumoniae [11]; strain FZ141
  MIC: ≤ 0.25 µg/mL
A. baumannii [12]; strain FZ1
  MIC: 512 µg/mL (≈ 3710 µM)
A. baumannii [12]; strain FZ2
  MIC: > 1020 µg/mL
A. baumannii [12]; strain FZ83
  MIC: 64 µg/mL (≈ 464 µM)
P. aeruginosa [13]; strain FZ18
  MIC: 64 µg/mL (≈ 464 µM)
P. aeruginosa [13]; strain FZ34
  MIC: > 1020 µg/mL
P. aeruginosa [13]; strain FZ45
  MIC: > 1020 µg/mL
P. aeruginosa [13]; strain FZ98
  MIC: 64 µg/mL (≈ 464 µM)
P. aeruginosa [13]; strain FZ139
  MIC: 8 µg/mL (≈ 57.9 µM)
S. maltophilia [14]; strain FZ6
  MIC: 64 µg/mL (≈ 464 µM)
S. maltophilia [14]; strain FZ8
  MIC: 128 µg/mL (≈ 927 µM)
S. maltophilia [14]; strain FZ85
  MIC: 32 µg/mL (≈ 232 µM)
[15]
  MIC50: 64 μs/m1
  MIC90: > 1024 μs/ml
[3]; strain FZ1, preformed biofilm
  Fosfomycin MBEC: >1024 µg/mL
[3]; strain FZ2, preformed biofilm
  Fosfomycin MBEC: >1024 µg/mL
[3]; strain FZ83, preformed biofilm
  Fosfomycin MBEC: >1024 µg/mL
[4]; strain FZ6, preformed biofilm
  Fosfomycin MBEC: >1024 µg/mL
[4]; strain FZ8, preformed biofilm
  Fosfomycin MBEC: >1024 µg/mL
[4]; strain FZ85, preformed biofilm
  Fosfomycin MBEC: >1024 µg/mL
[5]; strain FZ80, preformed biofilm
  Fosfomycin MBEC: >1024 µg/mL
[5]; [16]
  Fosfomycin MBEC: >1024 µg/mL
[5]; [17]
  Fosfomycin MBEC: >1024 µg/mL
[5]; [18]
  Fosfomycin MBEC: >1024 µg/mL
[5]; [19]
  Fosfomycin MBEC: >1024 µg/mL
[5]; [20]
  Fosfomycin MBEC: 4 µg/mL
[6]; strain FZ18, preformed biofilm
  Fosfomycin MBEC: >1024 µg/mL
[6]; strain FZ34, preformed biofilm
  Fosfomycin MBEC: >1024 µg/mL
[6]; strain FZ45, preformed biofilm
  Fosfomycin MBEC: >1024 µg/mL
[6]; strain FZ98, preformed biofilm
  Fosfomycin MBEC: >1024 µg/mL
[6]; [21]
  Fosfomycin MBEC: >1024 µg/mL
